Assay results from patent US20220280594A1, “APPLICATION OF POLYPEPTIDE OR DERIVATIVE THEREOF” (CHENGDU HUITAI BIOMEDICINE CO., LTD., priority 2019, published 2022).
Ends that are not written are not given here. PEG = not defined here

Experiments:
[1] = system: human non-small cell lung cancer cells (A549); assay: scratch assay, migration of A549 cells; format: cell-based; settings: A549, 10 μM, 48 hours; control group 75.31 ± 8.19
In short: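 Confluent A549 monolayers in 24-well plates were scratched, washed with PBS, then cultured 48 h in 2% FBS medium with peptide at 10 μM or PBS control, triplicate wells. Scratch width measured from images; migration rate (%) = (original − current width)/original width × 100.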

[2] = system: human lung cancer cells (95D); assay: scratch assay, migration of 95D cells; format: cell-based; settings: 10 μM, 48 hours, control group 55.3 ± 3.19
In short: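 Confluent 95D monolayers were scratched, washed with PBS and cultured 48 h in 2% FBS medium containing peptide (10 μM) or PBS control, in triplicate wells. Scratch width was measured on images; migration rate (%) = (original width − current width)/original width × 100.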

[3] = system: human lung cancer cells (A549) subcutaneous xenograft; assay: lung cancer subcutaneous xenograft animal model, intravenous injection; format: in vivo, mice (BALB/c-nu/nu); settings: intravenous 60 mg/kg once every other day, 20 days; for Weight of tumor (g) (mean ± SD): control 2.53 ± 0.17; for Volume of tumor (mm^3) (mean ± SD): control 3373.26 ± 581.44
In short: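 Female BALB/c-nu/nu mice (4-6 weeks) inoculated subcutaneously with ~2×10^6 A549 cells; grouped once tumours exceeded 100 mm^3. Peptides given intravenously at 60 mg/kg for 20 days versus model control. Tumour weight and volume measured at dissection; body weight recorded every other day.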

[4] = system: human pancreatic cancer cells (PANC-1); assay: scratch assay, migration of PANC-1 cells; format: cell-based; settings: PANC-1, 10 μM, 48 hours; control group 66.65 ± 3.37
In short: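 PANC-1 monolayers were scratched, then cultured for 48 h with 10 μM test compound in 2% FBS medium, in three parallel wells per group against a PBS control. Migration rate (%) was calculated as (original minus current scratch width) / original width × 100, from imaged wells.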

[5] = system: human pancreatic cancer cells (PANC-1); assay: transwell invasion assay, PANC-1 cells; format: cell-based; settings: PANC-1 transwell invasion, 10 μM, 24 hours; control group 727 ± 68
In short: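 Serum-free PANC-1 cells were seeded in matrigel-coated upper chambers with complete medium below. After 4-5 hours at 37° C., peptide was added at 10 μM final. Following 24 hours, invaded cells on the lower membrane surface were fixed, crystal violet-stained, imaged and counted against untreated controls.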

[6] = system: human breast cancer cells (MDA-MB-231); assay: scratch assay, migration of MDA-MB-231 cells; format: cell-based; settings: MDA-MB-231, 10 μM, 48 hours; control group 36.19 ± 5.15
In short: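 MDA-MB-231 monolayers (1-2×10^5 cells/well) were scratched, then kept 48 h in medium with 2% FBS containing polypeptide at 10 μM, with a PBS control, in triplicate wells. Migration rate (%) was taken from scratch width: (original − current)/original ×100.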

[7] = system: human melanoma cells (A375); assay: scratch assay, migration of A375 cells; format: cell-based; settings: A375, 10 μM, 48 hours; control group 44.03 ± 6.21
In short: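 Monolayers scratched, washed with PBS and cultured 48 hours in 2% FBS medium with polypeptides N1-N54 at 10 μM or PBS control, three wells per group. Migration rate (%) = (original − current scratch width)/original width×100, from imaged scratch widths.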

[8] = system: human colon cancer cells (HCT-116); assay: scratch assay, migration of HCT-116 cells; format: cell-based; settings: HCT-116, 10 μM, 48 hours; control group 47.78 ± 6.07
In short: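 Confluent HCT-116 monolayers were scratched, washed and cultured 48 h in 2% FBS medium with peptide at 10 μM versus PBS control, triplicate wells. Migration rate (%) = (original minus current scratch width)/original width × 100, from at least 3 images per well.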

[9] = system: human thyroid cancer cells (FRO); assay: scratch assay, migration of FRO cells; format: cell-based; settings: 10 μM, 48 hours, control group 60.34 ± 8.32
In short: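 FRO monolayers were scratched, washed, and cultured 48 h in 2% FBS medium with polypeptide derivatives at 10 μM or PBS control, three wells per group. Migration rate (%) = (original − current scratch width)/original width × 100, measured from images.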

For “N48: SEQ ID NO: 1 with A7R, deletion of position 11 and position 18, PEG modification at the carboxyl terminal (YRVRFLRKENTQDAED-{PEG}; reading uncertain)”, the “Migration rate (%) (mean ± SD, P)” value [1] was 22.04 ± 3.01,*** %, the “Migration rate (%) (mean ± SD, P)” value [2] was 25.07 ± 6.31,** % and the “Weight of tumor (g) (mean ± SD)” value [3] was 0.71 ± 0.37 g. The “Volume of tumor (mm^3) (mean ± SD)” value [3] was 1558.12 ± 436.42 mm^3, the “Migration rate (%) (mean ± SD, P)” value [4] was 20.60 ± 4.71,*** % and the “Number of cells (mean ± SD, P), invaded cells” value (shortened to “Number of cells (mean ± SD, P)”) [5] was 149 ± 12,****. The “Migration rate (%) (mean ± SD, P)” value [6] was 13.06 ± 3.2,** %, the “Migration rate (%) (mean ± SD, P)” value [7] was 9.09 ± 2.23,*** % and the “Migration rate (%) (mean ± SD, P)” value [8] was 18.03 ± 4.62,** %. For the same substance, the “Migration rate (%) (mean ± SD, P)” value [9] was 13.78 ± 2.61,*** %.

With “N49: SEQ ID NO: 1 with A7R, deletion of positions 1-2 and position 18, PEG modification at the carboxyl terminal (VRFLRKENVTQDAED-{PEG}; reading uncertain)” the “Migration rate (%) (mean ± SD, P)” value [1] was 27.20 ± 6.23,** %, the “Migration rate (%) (mean ± SD, P)” value [2] was 29.37 ± 3.62,** % and the “Weight of tumor (g) (mean ± SD)” value [3] was 0.73 ± 0.26 g. The “Volume of tumor (mm^3) (mean ± SD)” value [3] was 1513.42 ± 287.49 mm^3, the “Migration rate (%) (mean ± SD, P)” value [4] was 17.71 ± 7.65,*** % and the “Number of cells (mean ± SD, P)” value [5] was 141 ± 7,****. The “Migration rate (%) (mean ± SD, P)” value [6] was 13.41 ± 3.12,** %, the “Migration rate (%) (mean ± SD, P)” value [7] was 6.51 ± 1.53,*** % and the “Migration rate (%) (mean ± SD, P)” value [8] was 18.84 ± 2.99,** %. The “Migration rate (%) (mean ± SD, P)” value [9] was 15.77 ± 2.99,** %.

In the case of “N50: SEQ ID NO: 1 with N18R, addition of 2 amino acid at the carboxyl terminal, PEG modification at the amino terminal ({PEG}-YRVRFLAKENVTQDAEDRCT; reading uncertain)”, the “Migration rate (%) (mean ± SD, P)” value [1] is reported as 57.74 ± 4.39,* %, the “Migration rate (%) (mean ± SD, P)” value [2] is reported as 31.05 ± 4.32,** % and the “Weight of tumor (g) (mean ± SD)” value [3] is reported as 0.85 ± 0.27 g. For the same substance, the “Volume of tumor (mm^3) (mean ± SD)” value [3] was 1463.11 ± 472.43 mm^3, the “Migration rate (%) (mean ± SD, P)” value [4] was 14.92 ± 8.62,*** % and the “Number of cells (mean ± SD, P)” value [5] was 310 ± 30,***. The “Migration rate (%) (mean ± SD, P)” value [6] was 14.46 ± 5.73,** %, the “Migration rate (%) (mean ± SD, P)” value [7] was 15.97 ± 2.33,** % and the “Migration rate (%) (mean ± SD, P)” value [8] was 17.04 ± 4.96,** %. For the same substance, the “Migration rate (%) (mean ± SD, P)” value [9] was 11.80 ± 4.15,*** %.

In the case of “N51: SEQ ID NO: 1 with A15R, one amino acid added at each terminal, PEG modification at the amino terminal ({PEG}-FYRVRFLAKENVTQDREDNC; reading uncertain)”, the “Migration rate (%) (mean ± SD, P)” value [1] is reported as 53.59 ± 5.62,* %, the “Migration rate (%) (mean ± SD, P)” value [2] is reported as 30.04 ± 5.08,** % and the “Weight of tumor (g) (mean ± SD)” value [3] is reported as 0.75 ± 0.37 g. The “Volume of tumor (mm^3) (mean ± SD)” value [3] was 1412.56 ± 599.92 mm^3, the “Migration rate (%) (mean ± SD, P)” value [4] was 20.85 ± 8.10,*** % and the “Number of cells (mean ± SD, P)” value [5] was 282 ± 28,****. For the same substance, the “Migration rate (%) (mean ± SD, P)” value [6] was 14.5 ± 2.68,** %, the “Migration rate (%) (mean ± SD, P)” value [7] was 17.96 ± 3.20,** % and the “Migration rate (%) (mean ± SD, P)” value [8] was 16.11 ± 3.20,** %. For the same substance, the “Migration rate (%) (mean ± SD, P)” value [9] was 17.93 ± 5.55,** %.

In the case of “N52: SEQ ID NO: 1 with N18R, addition of two amino acids and PEG modification at the carboxyl terminal (YRVRFLAKENVTQDAEDRCT-{PEG}; reading uncertain)”, the “Migration rate (%) (mean ± SD, P)” value [1] is reported as 56.03 ± 4.21,* %, the “Migration rate (%) (mean ± SD, P)” value [2] is reported as 27.19 ± 5.67,** % and the “Weight of tumor (g) (mean ± SD)” value [3] is reported as 0.7 ± 0.2 g. The “Volume of tumor (mm^3) (mean ± SD)” value [3] was 1425.2 ± 555.76 mm^3, the “Migration rate (%) (mean ± SD, P)” value [4] was 23.11 ± 4.27,*** % and the “Number of cells (mean ± SD, P)” value [5] was 237 ± 27,****. For the same substance, the “Migration rate (%) (mean ± SD, P)” value [6] was 13.19 ± 4.84,** %, the “Migration rate (%) (mean ± SD, P)” value [7] was 19.57 ± 2.21,** % and the “Migration rate (%) (mean ± SD, P)” value [8] was 18.71 ± 3.59,** %. For the same substance, the “Migration rate (%) (mean ± SD, P)” value [9] was 10.86 ± 3.90,*** %.

In the case of “N53: SEQ ID NO: 1 with A15R, one amino acid added at each terminal, PEG modification at the carboxyl terminal (FYRVRFLAKENVTQDREDNC-{PEG}; reading uncertain)”, the “Migration rate (%) (mean ± SD, P)” value [1] is reported as 58.05 ± 3.60,* %, the “Migration rate (%) (mean ± SD, P)” value [2] is reported as 21.05 ± 6.60,** % and the “Weight of tumor (g) (mean ± SD)” value [3] is reported as 0.75 ± 0.27 g. The “Volume of tumor (mm^3) (mean ± SD)” value [3] was 1549.08 ± 539.99 mm^3, the “Migration rate (%) (mean ± SD, P)” value [4] was 15.85 ± 7.32,*** % and the “Number of cells (mean ± SD, P)” value [5] was 228 ± 25,****. The “Migration rate (%) (mean ± SD, P)” value [6] was 18.05 ± 6.08,* %, the “Migration rate (%) (mean ± SD, P)” value [7] was 18.83 ± 4.71,** % and the “Migration rate (%) (mean ± SD, P)” value [8] was 14.42 ± 3.21,*** %. The “Migration rate (%) (mean ± SD, P)” value [9] was 20.32 ± 4.58,** %.

“N54: SEQ ID NO: 1 with A7R, addition of two amino acids and PEG modification at the carboxyl terminal (YRVRFLRKENVTQDAEDNTC-{PEG}; reading uncertain)” was tested, and the “Migration rate (%) (mean ± SD, P)” value [1] was 54.66 ± 4.73,* %, the “Migration rate (%) (mean ± SD, P)” value [2] was 24.66 ± 6.13,** % and the “Weight of tumor (g) (mean ± SD)” value [3] was 0.89 ± 0.37 g. For the same substance, the “Volume of tumor (mm^3) (mean ± SD)” value [3] was 1381.65 ± 396.21 mm^3, the “Migration rate (%) (mean ± SD, P)” value [4] was 16.62 ± 5.73,*** % and the “Number of cells (mean ± SD, P)” value [5] was 231 ± 26,****. For the same substance, the “Migration rate (%) (mean ± SD, P)” value [6] was 13.37 ± 5.89,** %, the “Migration rate (%) (mean ± SD, P)” value [7] was 16.91 ± 3.21,** % and the “Migration rate (%) (mean ± SD, P)” value [8] was 26.50 ± 3.99,** %. For the same substance, the “Migration rate (%) (mean ± SD, P)” value [9] was 8.26 ± 3.47%.
